Tests used:
[1] = Fluorescence (emission) measurements; type: physicochemical; conditions: for maximum emission wavelength (λem): 50:50 ACN/PBS, excitation at λabs; for Emission λem: Table S12;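 as to all read-outs here: fluorescence emission spectra recorded on a spectrofluorometer, with each compound excited at its own absorption maximum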
Procedure: The fluorescence spectrum of each derivative (150 μL) was measured on a Photon Technology International (PTI) QuantaMaster™ 40 fluorescence spectrometer by excitation at the maximum absorption wavelength for each compound.
The fluorescence spectrum of each derivative (150 μL) was measured on a Photon Technology International (PTJ) QuantaMaster™ 40 fluorescence spectrometer by excitation at the maximum absorption wavelength for each compound.

[2] = Molar absorptivity determination; type: physicochemical;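 also: molar absorptivity derived from UV-Vis absorbance spectra recorded for each derivative on a spectrometer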
Procedure: The absorbance spectrum of each derivative (150 μL) was measured on a Thermo Scientific Genesys 150 UV-Vis spectrometer, using 50:50 ACN/PBS as a blank.
Molar absorptivity determination. […] The absorbance spectrum of each derivative (150 μL) was measured on a Thermo Scientific Genesys 150 UV-Vis spectrometer, using 50:50 ACN/PBS as a blank.

[3] = Fluorescent quantum yield (QY) measurements; type: physicochemical; conditions: for Fluorescence QY: ACN/PBS buffer (1:1 v/v); for Fluorescence quantum yield: in ACN
Procedure: For each QY measurement, the incident excitation light spectrum was collected with 1 mL of solvent. […] Using the JASCO Quantum Yield Software, the dye QY was calculated by dividing the dye fluorescence intensity by the difference in incident light intensity in the presence and absence of dye. The minimum excitation wavelength for a full excitation incident spectrum using this setup is 360 nm.
Fluorescent quantum yield (QY) measurements. For each QY measurement, the incident excitation light spectrum was collected with 1 mL of solvent. After measuring the incident light intensity, dye (3 and 5a-5k) was added to the solvent from a concentrated stock solution to a final concentration of […] and the new spectrum (fluorescence intensity and new incident light intensity) was collected. Using the JASCO Quantum Yield Software, the dye QY was calculated by dividing the dye fluorescence intensity by the difference in incident light intensity in the presence and absence of dye. The minimum excitation wavelength for a full excitation incident spectrum using this setup is 360 nm.

[4] = Fluorescence lifetime measurements (TCSPC); type: physicochemical; conditions: for Fluorescence Lifetime: ACN/PBS buffer (1:1 v/v); for Lifetime: ACN/PBS buffer (50:50 v/v), excitation 340 nm
Procedure: Time correlated single photon counting (TCSPC) measurements of fluorescence lifetime decays for 100 μM solutions of dyes (6, 7c, 7e, 7f, and 7g) in ACN/PBS buffer (50:50 v/v) were collected with the PTI Quantamaster™ 40 using a pulsed LED with a maximum emission at 340 nm. Fluorescence emission was collected at the indicated wavelength for each dye with 20 nm slit widths. The instrument response function (IRF) was collected under identical conditions. Data analysis was performed with FluoFit software (PicoQuant GmbH; Berlin, Germany) using an exponential decay model.
Fluorescence lifetime measurements. Time correlated single photon counting (TCSPC) measurements of fluorescence lifetime decays for 100 μM solutions of dyes (3 and 5c-f) in ACN/PBS buffer (50:50 v/v) were collected with the PTI Quantamaster™ 40 using a pulsed LED with a maximum emission at 340 nm. Fluorescence emission was collected at the indicated wavelength for each dye with 20 nm slit widths. The instrument response function ([…]) was collected under identical conditions. Data analysis was performed with FluoFit software (PicoQuant GmbH; Berlin, Germany) using an exponential decay model. […] FIG. 64D Fluorescence spectra of 5i-5k. […] Fluorescence spectra were measured at their maximum absorption wavelength. FIGS. 66A-66K show representative QY acquisitions of 3 and 5a-f, 5h-k in ACN/PBS buffer (50:50). All had consistent excitation (360 nm) and spectral collection (350-800 nm) parameters. Final concentration of the probe is 500 μM. Black line indicates incident light and blue line indicates sample spectrum. […] All had consistent excitation (360 nm, slit width 10 nm) and spectral collection (350-800 nm) parameters. Final concentration of the probe is 500 µM. Black line indicates incident light and blue line indicates sample spectrum. FIG. 68: Effect of pH on absorption and emission of 5h and 5j. […] For pH screening of 5h and 5j, PBS buffer solutions were prepared, then adjusted the pH 2, 4, and 7 by adding 6 M hydrochloric acid, pH 9 and 11 by adding 5 M sodium hydroxide. Emission spectra were measured by the excitation wavelength 354 nm for 5h and 385 nm for 5j. […] Lifetime measurements with exponential fits shown at left and residuals after fitting shown at right.

[5] = Solvatochromic measurements; type: physicochemical; conditions: organic solvents of different polarity
Procedure: The remaining 850 μL solution was used to obtain fluorescence images under a handheld 365 nm UV lamp.
Solvatochromic measurements. […] The remaining 850 μL solution was used to obtain fluorescence images under a handheld 365 nm UV lamp.

[6] = Absorbance measurements (UV-Vis); conditions: for λabs: ACN/PBS; for Absorbance Wavelength: ACN:PBS buffer (50:50 v/v)
[7] = pH measurements (absorption and emission); type: physicochemical; conditions: pH 2-11
Procedure: 10 mM stock solutions of 7h, 7j, and 7k in DMSO were individually diluted into ACN/PBS buffer (50:50 v/v) having different pH ranging from pH 2-11 with 25 μM (500 μL) of final concentration. For pH screening of 7h and 7j, PBS buffer solutions were prepared, then adjusted the pH 2, 4, and 7 by adding 6 M hydrochloric acid, pH 9 and 11 by adding 5 M sodium hydroxide. For pH screening of 7k, pH 4.4 and 7.4 were prepared by citric acid/phosphate buffer. Then, the absorption and fluorescence spectra were recorded by using Thermo Scientific Genesys 150 UV-Vis spectrometer, followed by PTI QuantaMaster™ 40 fluorescence spectrometer by excitation with maximum absorption wavelength.
pH measurements. 10 mM stock solutions of 5h and 5j in DMSO were individually diluted into ACN/PBS buffer (50:50 v/v) having different pH ranging from pH 2-11 with 25 µM (500 μL) of final concentration. For pH screening of 5h and 5j, PBS buffer solutions were prepared, then adjusted the pH 2, 4, and 7 by adding 6 M hydrochloric acid, pH 9 and 11 by adding 5 M sodium hydroxide. Then, we have recorded the absorption and fluorescence spectra by using Thermo Scientific Genesys 150 UV-Vis spectrometer, followed by PTI QuantaMaster™ 40 fluorescence spectrometer by excitation with maximum absorption wavelength.

αS fibrils [8] = target: T1, αS fibrils (Homo sapiens, UniProt P37840); assay: Fluorescence spectra with αS fibrils; type: binding
T1 construct: intein-His6 (C, cleaved yes); made in house; host or cells: Escherichia coli BL21
Procedure: Fluorescence measurements were performed using a PTI QuantaMaster™ 40 fluorescence spectrometer. Fluorescence spectra of 10 μM probes (concentrated stock solution prepared as 10 mM in DMSO) (7b, 7c, 7d, 7e, 7f, 7g and 7h) in PBS buffer were measured by excitation at their absorbance maximum wavelength in the absence and presence of 50 μM αS fibrils (stock solution 100 μM αS fibrils in PBS buffer).
Fluorescence spectra with αS fibrils. Fluorescence measurements were performed using a PTI QuantaMaster 40 fluorescence spectrometer. Fluorescence spectra of 10 μM probes (concentrated stock solution prepared as 10 mM in DMSO) (5b-5f and 5h) in PBS buffer were measured by excitation at their absorbance maximum wavelength in the absence and presence of 50 μM αS fibrils (stock solution 100 μM αS fibrils in PBS buffer). […] FIGS. 77A-77F show fluorescence spectra of probes (5b-5f and 5h) with and without αS fibrils. Final concentrations of probes and αS fibrils were 10 μM and 50 μM, respectively. Emission spectra collected at each dye's maximum absorption wavelength. Ex/Em slit widths: 3 nm/3 nm. […] Absorbance is shown in FIG. 78A and FIG. 78B, whereas FIG. 78C and FIG. 78D show excitation spectra of probes 5j and 5k with and without αS fibrils. Final probe and fibrils concentrations were 10 μM and 50 μM, respectively. […] Emission wavelengths were 575 nm for 5j, 580 nm for 5k. Ex/Em slit widths: 3 nm/3 nm. […] Black line indicates incident light (αS fibrils without probe) and blue line indicates sample (αS fibrils with probe). Excitation at λexc=435 nm for 5j and λexc=463 nm for 5k and spectral collection (400-800 nm). Final concentrations of the probe and αS fibrils are the 100 μM. Ex/Em slit widths: 5 nm/5 nm.

αS fibrils [9] = target: T1, αS fibrils; assay: Competition binding with ThT on αS fibrils
[10] = 25 μM in ACN/PBS buffer (1:1 v/v), pH 7.4
[11] = ACN/PBS buffer (1:1 v/v), pH 7.4
[12] = in ACN, at maximum absorption wavelength

Compound	Emission λmax [1, 10]	Stokes shift ([1]; ACN/PBS buffer (1:1 v/v))	Stokes shift ([1]; in ACN)	Molar Absorptivity (ε) [2, 11]	Molar Absorptivity (ε) [2, 12]	Fluorescence QY [3]	Fluorescence quantum yield [3]	Fluorescence quantum yield ([3]; Table S12)	Fluorescence Lifetime [4]	Lifetime ([4]; Table 4)	Lifetime ([4]; Table S13)	solvatochromism / environmental sensitivity [5]	Absorbance λmax ([6]; 25 μM in ACN)	Absorbance λmax [6, 10]	λabs [6]	Absorbance Wavelength ([6]; Table 11)	Absorbance Wavelength ([6]; Table S14)	maximum emission wavelength (λem) [1]	Emission λmax ([1]; 25 μM in ACN)	Emission λem ([1]; 25 μM in ACN)	further results
Cc1c(C)n2c(/C=C/c3ccccc3)c(C)c(=O)n2c1=O [Compound 7e, (E)-2,3,6-trimethyl-5-styryl-1H,7H-pyrazolo[1,2-a]pyrazole-1,7-dione]	503 nm	182 nm	176 nm	23959 M⁻¹ cm⁻¹	32724 M⁻¹ cm⁻¹	2.5%	3.1%	3.1%	1.02 ns	1.02 ± 0.004 ns	1.02 ± 0.004 ns	no significant solvatochromism	316 nm	321 nm	321 nm	321 nm	321 nm	–	–	–	–
Cc1c(C)n2c(/C=C/c3ccc(O)cc3)c(C)c(=O)n2c1=O [Compound 7h, (E)-3-(4-hydroxystyryl)-2,5,6-trimethyl-1H,7H-pyrazolo[1,2-a]pyrazole-1,7-dione]	506 nm	152 nm	144 nm	31514 M⁻¹ cm⁻¹	29910 M⁻¹ cm⁻¹	2.3%	3.1%	3.1%	–	–	–	–	342 nm	354 nm	–	348 nm	354 nm	505 nm	–	–	pH effects on absorption and emission [7]: red-shifted absorption at pH 11 with a reduced QY, but no shift in emission
COP(=O)(Cc1c(C)c(=O)n2c(=O)c(C)c(C)n12)OC [Compound 6, dimethyl ((2,5,6-trimethyl-1,7-dioxo-1H,7H-pyrazolo[1,2-a]pyrazol-3-yl)methyl)phosphonate]	464 nm	80 nm	57 nm	7902 M⁻¹ cm⁻¹	6121 M⁻¹ cm⁻¹	64.6%	77.7%	77.7%	2.32 ns	2.32 ± 0.01 ns	2.32 ± 0.01 ns	no significant environmental sensitivity	375 nm	384 nm	–	–	–	464 nm	432 nm	432 nm	fluorescence quantum yield (QY) ([3]; in ACN/PBS): 64.6%; fluorescent lifetime ([4]; ACN/PBS): 2.32 ns
(E)-3-(4-(dimethylamino)styryl)-2,5,6-trimethyl-1H,7H-pyrazolo[1,2-a]pyrazole-1,7-dione [Compound 7l]	–	–	–	–	–	–	–	–	–	–	–	–	–	–	–	385 nm	–	–	–	–	concentration-dependent shift in the emission maximum with αS fibrils (αS fibrils [8]): binding at limited sites with high affinity; competition with ThT on αS PFFs (αS fibrils [9]): displacement of the known amyloid-binding dye ThT
Cc1c(C)n2c(/C=C/c3ccc(C#N)cc3)c(C)c(=O)n2c1=O [Compound 7b, (E)-4-(2-(2,5,6-trimethyl-1,7-dioxo-1H,7H-pyrazolo[1,2-a]pyrazol-3-yl)vinyl)benzonitrile]	520 nm	200 nm	206 nm	38995 M⁻¹ cm⁻¹	43238 M⁻¹ cm⁻¹	0.8%	1.4%	1.4%	–	–	–	no significant solvatochromism	316 nm	320 nm	320 nm	320 nm	320 nm	–	522 nm	522 nm	–
